Assay results as given in ChEMBL document CHEMBL3507680, “University of Dundee, Gates Library screen for HepG2 cell viability”.

Experiment: Human HepG2 cell viability assay in 384 well format
Format: toxicity, cell-based
Parameters: dose 125 nL, time 70.5 hour; cytotoxicity at 70.5 h: concentration not given beside the values
Details: HepG2 cells, read-out: Inhibition

Structure (SMILES)	cytotoxicity at 70.5 h [%]
CC(C)n1[nH]c(=O)c2c1NC(=O)CC2c1cccc(Br)c1 (configuration not stated)	-12.9
N#Cc1ccc(N2CCN(c3ncccn3)CC2)c(C(F)(F)F)c1	8.58
Cn1nc(CNC(=O)CN2C(=O)CCC2=O)cc1C1CC1	1.45
O=C(Cn1cnc(NC(=O)c2ccccn2)n1)NCc1ccccc1	-12.9
CC(C)(C)Cc1nnc(NCc2cccc(C#N)c2)o1	-1.69
O=C(NCCc1c[nH]cn1)c1ccccc1C1CCNC1 (configuration not stated)	18
CC(C)(C)c1ncc(C(=O)NCc2ccccc2CN2CCCC2)s1	-6.15
O=C1COC2(CCN(Cc3cccs3)CC2)CN1c1ccsc1	1.63
CC(C)CNC(=O)[C@H]1C[C@@H]2CN(C(=O)NCCc3ccccc3)C[C@H]1O2	-10.9
C=C(C)CN1CCC(Nc2nc(C)ns2)CC1	-0.501
O=C(N1CCOCC1)N1CCN(c2ccc(Cl)nn2)C(=O)C1	-6.24
CC(=O)N1CCC(Oc2ccc(C#N)cn2)CC1	-3.09
Cc1ccc(N2CCC3(CCCN(C(=O)c4cccnc4)C3)C2)nn1 (configuration not stated)	18.8
O=S1(=O)C[C@@H]2[C@H](C1)N(Cc1ccc3ccccc3c1)CCN2CC1CC1	2.29
CCc1nnc2n1CCN(C(=O)c1ccc(C)c(S(N)(=O)=O)c1)C2	-1.49
O=C(NCCc1nc2ccccc2s1)c1coc(CN2CCOCC2)c1	5.71
O=C(CCNC(=O)C1=Cc2ccccc2OC1)NCc1ccncc1	-2.01
COc1ccc(CN(Cc2ccco2)Cc2[nH]cnc2C)c(OC)c1	-8.31
c1ncn(CC2CCCN(Cc3noc(C4CC4)n3)C2)n1 (configuration not stated)	-12.6

Structure (SMILES)	cytotoxicity at 70.5 h [%]
NC(=O)c1nnn(-c2ccc(Br)cc2)n1	33.2
O=C(Cc1cccc2cccnc12)N1CCCN(c2cccnn2)CC1	-11
COc1ccc(Cl)cc1CN(CC(N)=O)C(C)C	-4.98
Cc1ccc([C@@H]2CN(S(=O)(=O)c3cc(C)ccc3F)C[C@H]2N(C)C)cc1	-8.32
CNc1ncc(CN(C)C(=O)c2cccc(-n3cccn3)c2)cn1	-6.94
CC(NC(=O)c1cccc[n+]1[O-])c1ccc2c(c1)CCC(=O)N2 (configuration not stated)	-3.74
O=C(c1ccc(F)cc1)N1CCOC(c2nc(-c3ncccn3)no2)C1 (configuration not stated)	-5.53
CC(C)OCc1noc(C2CCCOC2)n1 (configuration not stated)	-10.6
CC(C)c1nc(CN(C)C(=O)c2ccc3c(c2)OCO3)cs1	-9.84
COCCNc1nnc(-c2ccc(C)nc2)s1	1.91
CC(C)(C)c1cc(NC(=O)CN2CCn3c(nnc3C3CC3)C2)on1	3.06
CCN(Cc1ccoc1)C(C(N)=O)c1ccc(Br)cc1 (configuration not stated)	16.2
Cc1ccc(C(=O)NS(C)(=O)=O)cc1-n1cccc1	-6.32
CCOc1ccc(OCCN2CCC(N3CCNC3=O)CC2)cc1	19
O=C(c1ccco1)N1CC[C@H]2[C@H]1CCN2CC1CCOCC1	5.37
COC(=O)CCC(=O)N1CCC2(CN(Cc3ccccc3)C2)C1	21
CCCC(=O)NC(C)c1nnc2n1CCC2 (configuration not stated)	-15.3
CCCC(Nc1nc(COCC)nc2c1CCNCC2)c1nccn1C (configuration not stated)	2.1
Cc1oncc1C(=O)N1CCC2(CCN(Cc3ccccn3)C2=O)C1 (configuration not stated)	-0.113

Structure (SMILES)	cytotoxicity at 70.5 h [%]
Cc1cc(NCCc2cnccn2)nc(-c2ccccc2O)n1	-12.4
Cn1cnnc1C1CCN(C(=O)COCc2ccccc2Cl)CC1	-11.8
O=C(NC1CCCN(CCCc2ccccc2)C1)c1ccncc1 (configuration not stated)	-2.32
CCC(O)Cn1nc(CCSC)nc1-c1ccc2[nH]ccc2c1 (configuration not stated)	1.48
Fc1cccc(-n2nc(C3CC3)nc2CCn2cnnn2)c1	-3.9
Cc1cnn(CC2CCCCN2Cc2cnc(C)s2)c1 (configuration not stated)	-12.5
CCCc1nc(C)c(C(=O)NCCN2CCN(CC)CC2)s1	-5.5
Cc1nc2cc(=O)[nH]n2c(C)c1CC(=O)Nc1cn[nH]c1	-2.66
Cc1nc(Oc2ccccc2Cl)sc1C(=O)O	-15.5
CCS(=O)(=O)CCNC(=O)c1ccc(-c2ccc(C)cc2)cc1F	-6.67
Cc1ccccc1Cc1nc(CSc2nnc(N)n2C)no1	-17.8
CN(c1nccc(-c2cnc3sc(Cl)cn3c2=O)n1)C1CCCCC1	-3.38
CCc1nc2n(n1)CC(Nc1ccnc(-c3ccccc3)n1)CC2 (configuration not stated)	-3.97
CCN1CCC(CNC(=O)C2(c3ccc(F)cc3)CC2)C1 (configuration not stated)	52
CCCc1noc(-c2cn(CC(=O)N(CC)CC)nn2)n1	-4.55
CCNc1cc2c(nn1)CCN(C(=O)c1cc3ccccc3o1)C2	-6.18
CN(CCc1ccccc1)C1CCCN(Cc2nccn2C)C1 (configuration not stated)	-4.92
COc1c(C2CCCN2CC(=O)N(C)Cc2ccco2)c(C)nn1C (configuration not stated)	-5.02
NCC1Cc2cc(F)cc(-c3cnccn3)c2O1 (configuration not stated)	-3.38
